Experimental data reported in patent US20110016537A1, “Cellular model of tauopathies for lead identification and drug discovery” (Georg-August-Universitat Gottingen Stifung offentl, priority 2003, published 2011).

Experiments:
[1] = tested on: SHSY5Y neuroblastoma cells; test: Apoptosis detection (TUNEL, activated caspase-3 immunolabeling) in SHSY5Y cells; assay type: cell-based, human; settings: for cells showing signs of apoptosis (TUNEL): 48 h. post transfection
Excerpt: (§1) In order to analyse apoptosis induction in SHSY5Y neuroblastoma cells transfected with wild-type and triple mutant tau, the TUNEL method was used to label fragmented nuclear DNA, a characteristic marker of apoptosis. This was combined with the assessment of a second pathomorphological criteria: shrunken cell body with sparse cytosol and rounded cell morphology. Such a combination of criteria is considered sufficient to identify positively the occurrence of apoptosis (Stadelmann and Lassmann (2000) Cell Tissue Res. 301, 19-31). Since 48 hours after transfection a significant decrease in cell number and apparent cell degeneration is observed, this timepoint was chosen for the comparative analysis. At this timepoint the mode of degeneration, if apoptotic, should have been obvious. […] In FIG. 5a, apoptotic and non-apoptotic M123-transfected cells are shown, as well as a positive 50 nM staurosporin-treated neuroblastoma control. […] Activated caspase-3 immunolabeling, however, detected 18.66±0.93% apoptotic cells in M123 transfected neuroblastoma cells vs. 3.62±1.87% in wild-type transfected cells (p<0.01, Mann-Whitney U-test). The reason for this atypical apoptosis presentation in our system is unknown and awaits further elucidation. Next, in order to assess the real biological significance of apoptosis in the process of cell elimination, specific cell-permeable caspase-3 inhibitor and cytochrome c release inhibitor (both from Calbiochem, Germany) were used. Cells were treated 24 h. post transfection immediately after counting their reference number and incubated with apoptosis inhibitors until 60 h. post transfection in order to cover the time window with the highest decrease in cell number. […]

CHO cells [2] = test: Morphological aggregate formation after transfection in CHO cells; assay type: cell-based, Chinese hamster; settings: 24 hrs post transfection
Description: On the contrary—in areas with bulky aggregation a deficit of the normal cytoskeletal configuration was observed. In order to visualize a difference in the biophysical properties of tau and aggregating mutants, FRAP (fluorescent recovery after photobleaching) analysis was performed in CHO-cells 24 hours after transfection, using wild-type tau and the triple (M123) mutant. Tau tagged with GFP represents a perfect tool for aggregation examination in living cells in real time. Apparent differences were found between wild-type tau and the triple mutant.
Transfection of cells was performed, using the Effectene Transfection Kit (Qiagen, Germany) according to the manufacturers instructions. Following addition of 4-8 μl enhancer solution, 0.5-1 μg DNA were incubated with 10 μl Effectene and 85 μl transfection buffer. All plasmids were purified using EndoFree Maxi Kit (Qiagen, Germany).
Confocal imaging was performed with a Leica TCS SP2 confocal system fitted with an AOBS (acousto-optical beam splitter) (Leica, Germany). The objectives used were 63× water or oil immersion; adjustments were as follows: Beam Expander 3, PMT—600-700 V, pinhole 1-1.4 airy disc, zoom—variable. Luminophore excitation was performed with an Argon-ion laser at 488 nm (for GFP), GreNe laser at 543 nm (for Cy3) and HeNe 643 nm (for Cy5).

[3] = tested on: SHSY5Y neuroblastoma cells; test: Phosphoepitope immunocytochemistry (AT8, AT100, AT180) in SHSY5Y neuroblastoma cells; assay type: cell-based, human
Description: In order to examine the neurotoxicity of the mutant tau variants in human neuronal cell line, SHSY5Y neuroblastomas were used and the cell number of each preparation at 48 and 72 hours post transfection was normalized to the cell number in the same dish at 24 hours. […] The same effect was observed by the double mutants. Further, the presence of two specific pathological phosphoepitopes was tested using phosphospecific antibodies—AT8 (S202/T205 specific) and AT100 (T212/S214), the latter being exclusively specific for Alzheimer's disease NFTs and generally considered as the only AD-specific antibody by experts in the field of neuropathology. […] In the mutants (especially in the double and triple mutants) there was a very strong AT8 labeling, reaching 83.24±5.45% in M123 (FIG. 4c). […] This was accompanied by early phosphorylation, colocalizing with the initial tau aggregates. […] This mutant completely lacked a fragment which contains most phosphorylation sites of the projection domain (including the corresponding sites for AT8, AT100, AT180, AT270), thus confirming the independence of aggregation and phosphorylation. […] Another phosphoepitope that is highly specific for AD—T212/S214 (recognized by AT100 antibody), was present especially in double and triple mutants (FIG. 4d). In contrast to AT8, this immunolabeling was not observed in all aggregates, but only in those with bulky rounded or oval shape. […] Obviously, the formation of the T212/S214 phosphoepitope requires, apart from S202/T205 phosphoepitope formation (Schneider et al. (1999) Biochemistry 38, 3549-3558), also a specific conformational modification, apparently achieved with increase of mutant epitope number. In the M123 mutant 22.13±2.87% were also AT180 immunopositive (phosphoepitope T231) vs. none in wild-type tau transfectants (not shown). In order to assess the relative contribution of the aggregation, S202/T205 and T212/S214 phosphorylation to cell toxicity, multiple correlation analyses were performed. […]

CHO cells [4] = test: AT8-detected phosphorylation in CHO cells; assay type: cell-based, Chinese hamster; settings: CHO cells (data not shown)
[5] = tested on: SHSY5Y neuroblastoma cells; test: Cell survival of M123-transfected SHSY5Y cells with apoptosis inhibitors; assay type: cell-based, human; settings: inhibitors on M123-transfected cells from 24 h. until 60 h. post transfection
Excerpt: as §1, with “elucidation.” for “elucidation. Next, in order to assess the real biological significance of apoptosis in the process of cell elimination, specific cell-permeable caspase-3 inhibitor and cytochrome c release inhibitor (both from Calbiochem, Germany) were used. Cells were treated 24 h. post transfection immediately after counting their reference number and incubated with apoptosis inhibitors until 60 h. post transfection in order to cover the time window with the highest decrease in cell number.”

Row | Compound | cells showing signs of apoptosis (TUNEL) [1] | formation of morphologically apparent aggregates (CHO cells [2]) | AT100 (T212/S214) immunolabeling [3] | AT180 (phosphoepitope T231) immunopositive cells [3] | AT8 (S202/T205) immunolabeled cells ([3]; 36 h. after transfection) | AT8-detected phosphorylation (CHO cells [4]) | apoptotic cells by activated caspase-3 immunolabeling [1] | cell survival [5]
1 | CN[C@@H]1C[C@H]2O[C@@](C)([C@@H]1OC)n1c3ccccc3c3c4c(c5c6ccccc6n2c5c31)C(=O)NC4 [staurosporin] | TUNEL-positive nuclei | – | – | – | – | – | – | –
2 | wild-type tau: wild-type human tau 441, SEQ ID NO.:25, used as control [reference compound] | 5.97±1.54% | normal MT (microtubule) association without aggregates | did not label | none | 9.17±2.3% | only a slight pattern | 3.62±1.87% | 87.86±12.4%
